Our source for the Ki and IC50 values is patent US8772480B2, “Inhibitors of PI3 kinase and/or mTOR” (priority 2009, dated 2014).

Bounds are passed on as bounds.

For one experiment, the target named is PI3Kα (Homo sapiens (Human), UniProt P42336). To be noted: read-out: PI3Kα AlphaScreen ® Ki.
Experiment [1] has as its system phosphorylation of Akt at Serine 473 in U87 MG cells. In words: cells. Conditions: Homo sapiens, U-87 MG, 2 h, read-out: U87Cell IC50, pAkt (Ser 473), U87 MG cells, two hours with compound.

PI3Kα, sequence (P42336 whole entry): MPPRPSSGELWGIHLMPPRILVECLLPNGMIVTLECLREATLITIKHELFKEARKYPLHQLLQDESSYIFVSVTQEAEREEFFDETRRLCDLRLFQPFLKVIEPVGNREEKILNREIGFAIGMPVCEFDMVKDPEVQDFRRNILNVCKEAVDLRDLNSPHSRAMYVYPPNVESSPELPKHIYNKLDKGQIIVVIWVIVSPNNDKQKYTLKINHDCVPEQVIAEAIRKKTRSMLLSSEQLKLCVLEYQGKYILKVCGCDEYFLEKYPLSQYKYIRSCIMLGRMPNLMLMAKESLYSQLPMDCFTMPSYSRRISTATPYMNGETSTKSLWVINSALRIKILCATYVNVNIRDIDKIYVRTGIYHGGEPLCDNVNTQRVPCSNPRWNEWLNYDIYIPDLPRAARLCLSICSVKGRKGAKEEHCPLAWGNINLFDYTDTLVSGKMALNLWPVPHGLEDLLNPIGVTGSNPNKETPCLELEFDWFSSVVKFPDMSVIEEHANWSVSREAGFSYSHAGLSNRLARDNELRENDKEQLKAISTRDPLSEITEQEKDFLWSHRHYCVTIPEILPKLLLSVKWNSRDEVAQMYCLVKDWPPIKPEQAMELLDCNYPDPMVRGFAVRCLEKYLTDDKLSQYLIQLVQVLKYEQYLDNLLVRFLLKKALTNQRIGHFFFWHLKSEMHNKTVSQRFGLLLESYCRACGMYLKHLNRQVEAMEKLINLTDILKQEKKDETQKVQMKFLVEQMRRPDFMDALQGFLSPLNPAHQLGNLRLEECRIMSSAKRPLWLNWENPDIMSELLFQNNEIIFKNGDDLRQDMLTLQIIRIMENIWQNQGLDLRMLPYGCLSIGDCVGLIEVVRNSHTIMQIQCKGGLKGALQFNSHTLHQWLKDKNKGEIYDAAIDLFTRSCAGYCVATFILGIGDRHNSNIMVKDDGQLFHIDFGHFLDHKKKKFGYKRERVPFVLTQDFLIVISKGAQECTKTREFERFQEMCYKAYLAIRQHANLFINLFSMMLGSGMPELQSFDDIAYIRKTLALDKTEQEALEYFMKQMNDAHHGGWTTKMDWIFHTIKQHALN
PI3Kα, sequence (P27986 whole entry partner): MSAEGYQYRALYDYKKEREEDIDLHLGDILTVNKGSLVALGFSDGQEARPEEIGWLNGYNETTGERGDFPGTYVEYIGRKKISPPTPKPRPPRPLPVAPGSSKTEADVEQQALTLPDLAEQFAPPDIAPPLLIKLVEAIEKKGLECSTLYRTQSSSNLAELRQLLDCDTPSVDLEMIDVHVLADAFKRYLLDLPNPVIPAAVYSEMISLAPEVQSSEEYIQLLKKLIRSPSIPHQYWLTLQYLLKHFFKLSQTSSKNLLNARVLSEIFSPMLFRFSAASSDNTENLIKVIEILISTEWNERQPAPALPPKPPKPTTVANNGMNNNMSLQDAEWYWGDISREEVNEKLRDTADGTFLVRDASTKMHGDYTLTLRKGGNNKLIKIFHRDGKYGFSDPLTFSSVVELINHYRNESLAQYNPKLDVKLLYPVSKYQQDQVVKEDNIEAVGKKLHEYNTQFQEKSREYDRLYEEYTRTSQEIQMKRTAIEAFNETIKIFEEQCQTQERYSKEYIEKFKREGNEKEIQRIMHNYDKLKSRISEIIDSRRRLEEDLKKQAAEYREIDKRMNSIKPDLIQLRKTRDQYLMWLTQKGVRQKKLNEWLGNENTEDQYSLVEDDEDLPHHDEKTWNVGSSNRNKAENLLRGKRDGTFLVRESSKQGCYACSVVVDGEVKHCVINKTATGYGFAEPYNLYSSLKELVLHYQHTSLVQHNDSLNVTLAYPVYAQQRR

With `COCCOc1ccc(-c2nc(C)nc(N)n2)c(Nc2cnc(OC)c(F)c2)n1` [Example 259, 4-(2-(5-Fluoro-6-Methoxypyridin-3-Ylamino)-6-(2-Methoxyethoxy)Pyridin-3-yl)-6-Methyl-1,3,5-Triazin-2-Amine], the Ki on PI3Kα was 0.081 µM. Also, the IC50 in experiment [1] was found to be 0.19 µM.

Consider `Cc1nc(N)nc(-c2cc(CN3CCN(S(C)(=O)=O)CC3)cnc2Nc2ccc3[nH]cnc3c2)n1` [Example 260, N-(3-(4-Amino-6-Methyl-1,3,5-Triazin-2-yl)-5-((4-(Methylsulfonyl)Piperazin-1-yl)Methyl)Pyridin-2-yl)-1H-Benzo[D]Imidazol-5-Amine], for which the inhibitory constant (Ki) at PI3Kα turned out to be 0.016 µM. Further, the IC50 in experiment [1] amounted to 1.03 µM.

`Cc1nc(N)nc(-c2cc(CN3CCNCC3)cnc2Nc2ccc3[nH]cnc3c2)n1` [Example 261, N-(3-(4-Amino-6-Methyl-1,3,5-Triazin-2-yl)-5-(Piperazin-1-Ylmethyl)Pyridin-2-yl)-1H-Benzo[D]Imidazol-5-Amine]: the Ki at PI3Kα was determined as 0.069 µM. For the same molecule, the IC50 in experiment [1] was found to be 2.72 µM.

Take `COc1ccc(Nc2ncc(OC(F)F)cc2-c2nc(C)nc(N)n2)cn1` [Example 262, 4-(5-(Difluoromethoxy)-2-(6-Methoxypyridin-3-Ylamino)Pyridin-3-yl)-6-Methyl-1,3,5-Triazin-2-Amine]: at PI3Kα, the Ki came out at 0.047 µM. For the same molecule, in experiment [1], the IC50 was 0.18 µM.

As to `Cc1nc(N)nc(-c2cccnc2Nc2cc[nH]c(=O)c2)n1` [Example 263, 4-(3-(4-Amino-6-Methyl-1,3,5-Triazin-2-yl)Pyridin-2-Ylamino)Pyridin-2(1H)-One], the inhibitory constant (Ki) at PI3Kα stood at 0.643 µM. For the same molecule, the IC50 in experiment [1] was more than 10 µM.

As to `CC(=O)Nc1ccc(Nc2ncc(Cl)cc2-c2nc(C)nc(N)n2)cc1F` [Example 266, N-(4-(3-(4-Amino-6-Methyl-1,3,5-Triazin-2-yl)-5-Chloropyridin-2-Ylamino)-2-Fluorophenyl)Acetamide], on PI3Kα, the Ki was determined as 0.155 µM. Further, the IC50 in experiment [1] is 1.1 µM.

As for `CC(=O)Nc1ccc(Nc2ncc(CN3CCN(S(C)(=O)=O)CC3)cc2-c2nc(C)nc(N)n2)cc1F` [Example 267, N-(4-(3-(4-Amino-6-Methyl-1,3,5-Triazin-2-yl)-5-((4-(Methylsulfonyl)Piperazin-1-yl)Methyl)Pyridin-2-Ylamino)-2-Fluorophenyl)Acetamide], the Ki at PI3Kα was 0.369 µM. For the same molecule, in experiment [1], the IC50 was found to be 0.486 µM.

As to `CC(=O)Nc1ccc(Nc2ncc(CN3CCN(S(C)(=O)=O)CC3)cc2-c2nc(C)nc(N)n2)cc1` [Example 268, N-(4-(3-(4-Amino-6-Methyl-1,3,5-Triazin-2-yl)-5-((4-(Methylsulfonyl)Piperazin-1-yl)Methyl)Pyridin-2-Ylamino)Phenyl)Acetamide], the Ki at PI3Kα is 0.103 µM. Moreover, the half-maximal inhibitory concentration (IC50) in experiment [1] came to 0.739 µM.

Turning to `COc1ncc(Nc2ncc([C@H](C)N3CCOCC3)cc2-c2cc(N)nc(C)n2)cc1F` [Example 275, 6-(2-((5-Fluoro-6-Methoxy-3-Pyridinyl)Amino)-5-((1S)-1-(4-Morpholinyl)Ethyl)-3-Pyridinyl)-2-Methyl-4-Pyrimidinamine], the Ki on PI3Kα turned out to be 0.032 µM. Moreover, in experiment [1], the IC50 was 0.018 µM.

Turning to `COc1ncc(Nc2ncc([C@@H](C)N3CCOCC3)cc2-c2cc(N)nc(C)n2)cc1F` [Example 276, 6-(2-((5-Fluoro-6-Methoxy-3-Pyridinyl)Amino)-5-((1R)-1-(4-Morpholinyl)Ethyl)-3-Pyridinyl)-2-Methyl-4-Pyrimidinamine], the inhibition constant Ki at PI3Kα turned out to be 0.017 µM. Also, in experiment [1], the IC50 came to 0.091 µM.

Consider `COc1ccc(Nc2ncc(C(C)(C)N)cc2-c2nc(C)nc(N)n2)cn1` [Example 277, 4-(5-(2-Aminopropan-2-yl)-2-(6-Methoxypyridin-3-Ylamino)Pyridin-3-yl)-6-Methyl-1,3,5-Triazin-2-Amine], for which the Ki at PI3Kα was 0.056 µM. In experiment [1], the IC50 came out at 0.17 µM.

`COc1ncc(Nc2ncc(C(C)(C)N)cc2-c2nc(C)nc(N)n2)cc1F` [Example 278, 4-(5-(2-Aminopropan-2-yl)-2-(5-Fluoro-6-Methoxypyridin-3-Ylamino)Pyridin-3-yl)-6-Methyl-1,3,5-Triazin-2-Amine]: the Ki at PI3Kα is 0.045 µM. The IC50 in experiment [1] was determined as 0.024 µM.

Take `COc1ccc(Nc2ncc(C(C)(C)N3CCN(S(C)(=O)=O)CC3)cc2-c2nc(C)nc(N)n2)cn1` [Example 279, 4-(2-(6-Methoxypyridin-3-Ylamino)-5-(2-(4-(Methylsulfonyl)Piperazin-1-yl)Propan-2-yl)Pyridin-3-yl)-6-Methyl-1,3,5-Triazin-2-Amine]: the Ki at PI3Kα is 0.011 µM. In experiment [1], the IC50 amounted to 0.034 µM.

Take `COc1ncc(Nc2ncc(C(C)(C)N3CCOCC3)cc2-c2nc(C)nc(N)n2)cc1F` [Example 281, 4-(2-(5-Fluoro-6-Methoxypyridin-3-Ylamino)-5-(2-Morpholinopropan-2-yl)Pyridin-3-yl)-6-Methyl-1,3,5-Triazin-2-Amine]: the Ki on PI3Kα came out at 0.006 µM. Also, in experiment [1], the IC50 is 0.016 µM.

For `COc1ccc(Nc2ncc(C3(N4CCN(S(C)(=O)=O)CC4)CC3)cc2-c2nc(C)nc(N)n2)cn1` [Example 282, 4-(2-(6-Methoxypyridin-3-Ylamino)-5-(1-(4-(Methylsulfonyl)Piperazin-1-yl)Cyclopropyl)Pyridin-3-yl)-6-Methyl-1,3,5-Triazin-2-Amine], the Ki at PI3Kα worked out at 0.007 µM. In addition, the half-inhibitory concentration (IC50) in experiment [1] is 0.026 µM.

As to `COc1ncc(Nc2ncc(C(C)N3CCN(S(C)(=O)=O)CC3)nc2-c2cc(N)nc(C)n2)cc1F` (stereo not drawn) [Example 283, 6-(3-(5-Fluoro-6-Methoxypyridin-3-Ylamino)-6-(1-(4-(Methylsulfonyl)Piperazin-1-yl)Ethyl)Pyrazin-2-yl)-2-Methylpyrimidin-4-Amine], at PI3Kα, the Ki came to 0.003 µM. Also, the IC50 in experiment [1] was 0.004 µM.

As to `COc1ncc(Nc2ncc(C(C)(C)O)nc2-c2cc(N)nc(C)n2)cc1F` [Example 284, 2-(6-(6-Amino-2-Methylpyrimidin-4-yl)-5-(5-Fluoro-6-Methoxypyridin-3-Ylamino)Pyrazin-2-yl)Propan-2-ol], on PI3Kα, the Ki was determined as 0.031 µM. Also, the IC50 in experiment [1] came to 0.063 µM.

As to `COc1ccc(Nc2ncc(C(C)=O)nc2-c2cc(N)nc(C)n2)cn1` [Example 285, 1-(6-(6-Amino-2-Methylpyrimidin-4-yl)-5-(6-Methoxypyridin-3-Ylamino)Pyrazin-2-yl)Ethanone], the Ki at PI3Kα amounted to 0.103 µM. Also, in experiment [1], the IC50 is more than 10 µM.

Take `COc1ccc(Nc2ncc(C(C)N3CCN(S(C)(=O)=O)CC3)nc2-c2cc(N)nc(C)n2)cn1` (stereo not drawn) [Example 286, 6-(3-(6-Methoxypyridin-3-Ylamino)-6-(1-(4-(Methylsulfonyl)Piperazin-1-yl)Ethyl)Pyrazin-2-yl)-2-Methylpyrimidin-4-Amine]: the inhibition constant Ki on PI3Kα worked out at 0.011 µM. In experiment [1], the half-inhibitory concentration (IC50) worked out at 0.111 µM.

As for `Cc1nc(N)nc(-c2cc([C@@H](C)N3CCN(S(C)(=O)=O)CC3)cnc2Nc2cc(F)c3cccnc3c2)n1` [Example 287, (R)—N-(3-(4-Amino-6-Methyl-1,3,5-Triazin-2-yl)-5-(1-(4-(Methylsulfonyl)Piperazin-1-yl)Ethyl)Pyridin-2-yl)-5-Fluoroquinolin-7-Amine], the Ki at PI3Kα worked out at 0.02 µM. For the same molecule, the concentration for half-maximal inhibition (IC50) in experiment [1] amounted to 0.204 µM.

As for `Cc1nc(N)nc(-c2cc(C(C)N3CCOCC3)cnc2Nc2ccc3scnc3c2)n1` (stereo not drawn) [Example 288, N-(3-(4-Amino-6-Methyl-1,3,5-Triazin-2-yl)-5-(1-Morpholinoethyl)Pyridin-2-yl)Benzo[D]Thiazol-5-Amine], on PI3Kα, the Ki amounted to 0.045 µM. Also, in experiment [1], the IC50 came out at 0.033 µM.

Turning to `Cc1nc(N)nc(-c2cc(C(C)N3CCN(C(=O)N(C)C)CC3)cnc2Nc2ccc3scnc3c2)n1` (stereo not drawn) [Example 289, 4-(1-(5-(4-Amino-6-Methyl-1,3,5-Triazin-2-yl)-6-(Benzo[D]Thiazol-5-Ylamino)Pyridin-3-yl)Ethyl)-N,N-Dimethylpiperazine-1-Carboxamide], the Ki on PI3Kα worked out at 0.06 µM. Also, the 50% inhibitory concentration (IC50) in experiment [1] was 0.111 µM.

In the case of `Cc1nc(N)nc(-c2cc(C(C)N3CCN(S(C)(=O)=O)CC3)cnc2Nc2ccc3scnc3c2)n1` (stereo not drawn) [Example 290, N-(3-(4-Amino-6-Methyl-1,3,5-Triazin-2-yl)-5-(1-(4-(Methylsulfonyl)Piperazin-1-yl)Ethyl)Pyridin-2-yl)Benzo[D]Thiazol-5-Amine], on PI3Kα, the Ki came to 0.024 µM. The IC50 in experiment [1] amounted to 0.045 µM.

`Cc1nc(N)nc(-c2cc([C@@H](C)N3CCN(S(C)(=O)=O)C[C@@H]3C)cnc2Nc2ccc3scnc3c2)n1` [Example 293, N-(3-(4-Amino-6-Methyl-1,3,5-Triazin-2-yl)-5-((R)-1-((S)-2-Methyl-4-(Methylsulfonyl)Piperazin-1-yl)Ethyl)Pyridin-2-yl)Benzo[D]Thiazol-5-Amine]: at PI3Kα, the Ki was 0.004 µM. For the same molecule, the IC50 in experiment [1] is 0.024 µM.

Take `COc1ncc(Nc2ncc(C(C)N3CCN(C(=O)N(C)C)CC3)cc2-c2nc(C)nc(N)n2)cc1F` (stereo not drawn) [Example 294, 4-(1-(5-(4-Amino-6-Methyl-1,3,5-Triazin-2-yl)-6-(5-Fluoro-6-Methoxypyridin-3-Ylamino)Pyridin-3-yl)Ethyl)-N,N-Dimethylpiperazine-1-Carboxamide]: at PI3Kα, the Ki worked out at 0.012 µM. For the same molecule, the IC50 in experiment [1] turned out to be 0.09 µM.

On to `COc1ncc(Nc2ncc([C@@H](C)N3CCN(S(C)(=O)=O)C[C@@H]3C)cc2-c2nc(C)nc3[nH]cnc23)cc1F` [Example 295, N-(5-Fluoro-6-Methoxypyridin-3-yl)-5-((R)-1-((S)-2-Methyl-4-(Methylsulfonyl)Piperazin-1-yl)Ethyl)-3-(2-Methyl-9H-Purin-6-yl)Pyridin-2-Amine], for which the Ki at PI3Kα was determined as 0.003 µM. Also, the IC50 in experiment [1] came out at 0.006 µM.

Turning to `COc1ncc(Nc2ncc([C@H](C)N3CCN(S(C)(=O)=O)C[C@@H]3C)cc2-c2nc(C)nc3[nH]cnc23)cc1F` [Example 296, N-(5-Fluoro-6-Methoxypyridin-3-yl)-5-((S)-1-((S)-2-Methyl-4-(Methylsulfonyl)Piperazin-1-yl)Ethyl)-3-(2-Methyl-9H-Purin-6-yl)Pyridin-2-Amine], at PI3Kα, the Ki was found to be 0.018 µM. In addition, in experiment [1], the IC50 came out at 0.051 µM.
